Data taken from DBAASP.
In brackets after ≈: the same amount, converted by molar mass.

Columns and labels:
Assay in all cases: ≥ marks a high value that may be exact or a test limit, other limits are often not marked, values filed in µg/mL are converted to µM
[1] = tested on: Escherichia coli ATCC 25922
[2] = tested on: Pseudomonas aeruginosa PAO1
[3] = tested on: Staphylococcus aureus ATCC 25923
[4] = tested on: Salmonella enterica serovar Typhimurium
[5] = tested on: Escherichia coli UB1005
[6] = tested on: Corynebacterium xerosis C875
[7] = tested on: Escherichia coli DC2
[8] = tested on: Staphylococcus epidermidis C621
[9] = tested on: Escherichia coli K12 MG1655
[10] = tested on: Pseudomonas aeruginosa ATCC 27853
[11] = tested on: Pseudomonas aeruginosa CMCCB 10104
[12] = tested on: Candida albicans ATCC 2002

SMILES | MIC [1] [µM] | MIC [3] [µM] | MIC [5] [µM] | MIC [6] [µM] | MIC [7] [µM] | MIC [8] [µM] | also measured
CC[C@H](C)[C@H](NC(=O)[C@H](CCCN=C(N)N)NC(=O)[C@@H](NC(=O)[C@H](CCCN=C(N)N)NC(=O)[C@H](Cc1c[nH]c2ccccc12)NC(=O)[C@H](CCC(N)=O)NC(=O)[C@@H](N)C(C)C)[C@@H](C)CC)C(=O)N[C@@H](C)C(=O)N[C@H](C(=O)N[C@H](C(=O)N[C@@H](CCCN=C(N)N)C(=O)N[C@@H](CCCCN)C(=O)O)[C@@H](C)CC)C(C)C [VQWRIRIAVIRK] | 10.4 (≈ 16 µg/mL) | 10.4 (≈ 16 µg/mL) | – | – | – | – | MIC [2]: 20.8 µM (≈ 32 µg/mL); MIC [4]: 10.4 µM (≈ 16 µg/mL)
CC[C@H](C)[C@H](NC(=O)[C@H](CCCN=C(N)N)NC(=O)[C@H](Cc1c[nH]c2ccccc12)NC(=O)[C@H](CCC(N)=O)NC(=O)[C@@H](N)CCCCN)C(=O)N[C@@H](CCCN=C(N)N)C(=O)N[C@H](C(=O)N[C@@H](CS)C(=O)N[C@H](C(=O)N[C@H](C(=O)N[C@@H](CCCN=C(N)N)C(=O)N[C@@H](C)C(=O)O)[C@@H](C)CC)C(C)C)C(C)C [KQWRIRVCVIRA] | 20.9 (≈ 32 µg/mL) | 20.9 (≈ 32 µg/mL) | – | – | – | – | MIC [2]: 41.9 µM (≈ 64 µg/mL); MIC [4]: 20.9 µM (≈ 32 µg/mL)
CC(C)[C@H](NC(=O)[C@H](C)NC(=O)[C@H](C)NC(=O)[C@H](C)NC(=O)[C@H](CCCCN)NC(=O)[C@@H](N)CCCCN)C(=O)N[C@@H](C)C(=O)N[C@@H](C)C(=O)N[C@@H](C)C(=O)N[C@@H](C)C(=O)N[C@@H](C)C(=O)N[C@H](C(=O)N[C@@H](C)C(=O)N[C@@H](C)C(=O)N[C@@H](Cc1c[nH]c2ccccc12)C(=O)N[C@@H](C)C(=O)N[C@@H](C)C(=O)N[C@H](C(=O)N[C@@H](C)C(=O)N[C@@H](C)C(=O)N[C@@H](C)C(=O)N[C@@H](CCCCN)C(=O)N[C@@H](CCCCN)C(=O)N[C@@H](CCCCN)C(=O)N[C@@H](CCCCN)C(N)=O)C(C)C)C(C)C [KKAAAVAAAAAVAAWAAVAAAKKKK] | – | – | ≥ 32 | 0.5 (≈ 1.17 µg/mL) | ≥ 32 | ≥ 32 | –
C[C@H](NC(=O)[C@H](C)NC(=O)[C@H](C)NC(=O)[C@H](CCCN=C(N)N)NC(=O)[C@H](C)NC(=O)[C@H](C)NC(=O)[C@H](C)NC(=O)[C@H](CCCCN)NC(=O)[C@@H](N)CCCCN)C(=O)N[C@@H](C)C(=O)N[C@@H](C)C(=O)N[C@@H](CCCN=C(N)N)C(=O)N[C@@H](C)C(=O)N[C@@H](C)C(=O)N[C@@H](Cc1c[nH]c2ccccc12)C(=O)N[C@@H](C)C(=O)N[C@@H](C)C(=O)N[C@@H](CCCN=C(N)N)C(=O)N[C@@H](C)C(=O)N[C@@H](C)C(=O)N[C@@H](C)C(=O)N[C@@H](CCCCN)C(=O)N[C@@H](CCCCN)C(=O)N[C@@H](CCCCN)C(=O)N[C@@H](CCCCN)C(N)=O [KKAAARAAAAARAAWAARAAAKKKK] | – | – | ≥ 64 | 8 (≈ 20.1 µg/mL) | ≥ 32 | ≥ 64 | –
CC[C@H](C)[C@H](NC(=O)[C@H](CC(=O)O)NC(=O)[C@H](Cc1c[nH]c2ccccc12)NC(=O)[C@H](CO)NC(=O)[C@H](CCCN=C(N)N)NC(=O)[C@@H](N)CCCCN)C(=O)N[C@H](C(=O)N[C@@H](CCCCN)C(=O)N[C@@H](CCCCN)C(=O)N[C@@H](Cc1ccc(O)cc1)C(=O)N[C@H](C(=O)NCC(=O)N[C@H](C(=O)N[C@H](C(=O)N[C@H](C(=O)NCC(=O)N[C@H](C(=O)N[C@H](C(=O)N[C@@H](Cc1cnc[nH]1)C(=O)O)[C@@H](C)CC)[C@@H](C)O)C(C)C)C(C)C)C(C)C)C(C)C)C(C)C [KRSWDIVKKYVGVVVGTIH] | – | – | – | – | – | – | MIC [9]: ≥ 58.6 µM
C[C@H](NC(=O)[C@H](C)NC(=O)[C@H](Cc1ccccc1)NC(=O)[C@H](C)NC(=O)[C@H](C)NC(=O)[C@H](Cc1c[nH]c2ccccc12)NC(=O)[C@H](C)NC(=O)[C@H](C)NC(=O)[C@H](Cc1ccccc1)NC(=O)[C@H](C)NC(=O)[C@H](C)NC(=O)[C@H](CCCN=C(N)N)NC(=O)[C@H](CCCN=C(N)N)NC(=O)[C@H](CCCN=C(N)N)NC(=O)[C@H](CCCN=C(N)N)NC(=O)[C@H](CCCN=C(N)N)NC(=O)[C@@H](N)CCCN=C(N)N)C(N)=O [RRRRRRAAFAAWAAFAA] | 4 (≈ 8.01 µg/mL) | – | 1 (≈ 2 µg/mL) | 0.5 (≈ 1 µg/mL) | 0.5 (≈ 1 µg/mL) | 4 (≈ 8.01 µg/mL) | MIC [10]: 8 µM (≈ 16 µg/mL)
CC[C@H](C)[C@H](NC(=O)CNC(=O)[C@H](CC(=O)O)NC(=O)[C@H](CC(C)C)NC(=O)[C@H](CC(C)C)NC(=O)CN)C(=O)N[C@@H](CC(C)C)C(=O)N[C@@H](CC(N)=O)C(=O)N[C@@H](C)C(=O)N[C@@H](CC(N)=O)C(=O)N[C@@H](Cc1ccccc1)C(=O)N[C@@H](CC(N)=O)C(=O)N[C@@H](C)C(=O)N[C@@H](C)C(=O)N[C@@H](CCCCN)C(=O)N[C@@H](CO)C(=O)N[C@@H](C)C(=O)NCC(=O)N[C@H](C(=O)N[C@@H](CO)C(=O)N[C@H](C(=O)N[C@@H](CC(C)C)C(=O)N[C@@H](CC(N)=O)C(=O)N[C@@H](C)C(=O)N[C@@H](CC(C)C)C(=O)N[C@@H](CO)C(=O)N[C@H]1CSSC[C@@H](C(=O)O)NC(=O)[C@H]([C@@H](C)O)NC(=O)[C@H](CCCCN)NC(=O)[C@H](CO)NC(=O)[C@H](CC(C)C)NC(=O)[C@H](CCCCN)NC1=O)C(C)C)[C@@H](C)O [GLLDGILNANFNAAKSAGTSVLNALSCKLSKTC] | 9.28 (≈ 30.6 µg/mL) | 9.28 (≈ 30.6 µg/mL) | – | – | – | – | MIC [11]: 9.28 µM (≈ 30.6 µg/mL); MIC [12]: 9.28 µM (≈ 30.6 µg/mL)
CSCC[C@H](NC(=O)[C@H](CCC(=O)O)NC(=O)[C@H](C)NC(=O)[C@H](C)NC(=O)[C@@H](NC(=O)CNC(=O)[C@H](C)NC(=O)[C@@H](NC(=O)[C@H](Cc1ccccc1)NC(=O)[C@@H]1CCCN1C(=O)[C@@H](N)CC(C)C)C(C)C)C(C)C)C(=O)N[C@@H](CCSC)C(=O)N[C@@H](CCC(N)=O)C(=O)N[C@@H](Cc1cnc[nH]1)C(=O)N[C@H](C(=O)N[C@@H](Cc1ccc(O)cc1)C(=O)N[C@H]1CSSC[C@@H](C(=O)O)NC(=O)[C@H](CCCCN)NC(=O)[C@H](CCCCN)NC(=O)[C@H](CO)NC(=O)[C@H](C)NC(=O)[C@H](C)NC1=O)C(C)C [LPFVAGVAAEMMQHVYCAASKKC] | 2.16 (≈ 5.3 µg/mL) | 4.32 (≈ 10.6 µg/mL) | – | – | – | – | MIC [11]: 17.3 µM (≈ 42.4 µg/mL); MIC [12]: 4.32 µM (≈ 10.6 µg/mL)
C[C@H](NC(=O)[C@H](C)NC(=O)[C@H](C)NC(=O)[C@H](CO)NC(=O)[C@H](C)NC(=O)[C@H](C)NC(=O)[C@H](C)NC(=O)[C@H](CCCCN)NC(=O)[C@@H](N)CCCCN)C(=O)N[C@@H](C)C(=O)N[C@@H](C)C(=O)N[C@@H](CO)C(=O)N[C@@H](C)C(=O)N[C@@H](C)C(=O)N[C@@H](Cc1c[nH]c2ccccc12)C(=O)N[C@@H](C)C(=O)N[C@@H](C)C(=O)N[C@@H](CO)C(=O)N[C@@H](C)C(=O)N[C@@H](C)C(=O)N[C@@H](C)C(=O)N[C@@H](CCCCN)C(=O)N[C@@H](CCCCN)C(=O)N[C@@H](CCCCN)C(=O)N[C@@H](CCCCN)C(N)=O [KKAAASAAAAASAAWAASAAAKKKK] | – | – | ≥ 64 | ≥ 64 | ≥ 64 | ≥ 64 | –
C[C@H](NC(=O)[C@H](C)NC(=O)[C@H](C)NC(=O)[C@H](C)NC(=O)[C@H](C)NC(=O)[C@H](C)NC(=O)[C@H](C)NC(=O)[C@H](CCCCN)NC(=O)[C@@H](N)CCCCN)C(=O)N[C@@H](C)C(=O)N[C@@H](C)C(=O)N[C@@H](C)C(=O)N[C@@H](C)C(=O)N[C@@H](C)C(=O)N[C@@H](Cc1c[nH]c2ccccc12)C(=O)N[C@@H](C)C(=O)N[C@@H](C)C(=O)N[C@@H](C)C(=O)N[C@@H](C)C(=O)N[C@@H](C)C(=O)N[C@@H](C)C(=O)N[C@@H](CCCCN)C(=O)N[C@@H](CCCCN)C(=O)N[C@@H](CCCCN)C(=O)N[C@@H](CCCCN)C(N)=O [KKAAAAAAAAAAAAWAAAAAAKKKK] | – | – | ≥ 64 | 2 (≈ 4.5 µg/mL) | ≥ 64 | ≥ 64 | –
